According to patent publication US20250241895A1 (GH RESEARCH IRELAND LIMITED, priority 2022, published 2025):

Columns and labels:
[1] = Pharmacokinetics of 5-MeO-DMT and bufotenine after inhalation; format: in vivo, human
Experimental: Blood samples were obtained at 1; 2; 4; 7; 10; 15; 20; 30; 45 min and 1; 1.5; 2; 3; 4 hours after administration.
PK parameters were generated by algebraic analysis of the concentration versus time plots for each individual. The analysis was carried out using the software Phoenix WinNonlin 6.3.

[2] = system: patients with treatment-resistant major depressive disorder (TRD); test: Phase 1/2 clinical trial of inhaled 5-MeO-DMT in TRD; conditions: for patients with at least one ADR: n=4
Experimental: This trial was designed in two parts. Part A was an open-label, single-arm, single-dose Phase 1 trial with two dose levels (12 mg (n=4) and 18 mg (n=4)). […] The primary endpoint of Part B was to assess the effects on the severity of depression, as assessed by the proportion of patients in remission on day seven after dosing, defined as a MADRS total score of less than or equal to 10.

[3] = 12 mg group n=4, sum of patient scores, 2 hours after dose
[4] = 12 mg group n=4, sum of patient scores, 3 hours after dose
[5] = 12 mg group n=4, sum of patient scores, baseline
[6] = 12 mg group n=4, sum of patient scores, day 1
[7] = 12 mg group n=4, sum of patient scores, day 7
[8] = IDR group n=8, sum of patient scores, 2 hours after last dose
[9] = IDR group n=8, sum of patient scores, 3 hours after last dose
[10] = IDR group n=8, sum of patient scores, baseline
[11] = IDR group n=8, sum of patient scores, day 1
[12] = IDR group n=8, sum of patient scores, day 7

## COc1ccc2[nH]cc(CCN(C)C)c2c1 [5-MeO-DMT]
[1]; 3 hours after inhalation, 6 mg, 12 mg, 18 mg
  detectability in the plasma: no longer detectable
[1]; inhaled
  absorption and distribution: rapid absorption and distribution
[2]; 12 mg group n=4, day 7
  BPRS Anxiety percentage improvement: 76.00%
  MADRS Pessimistic Thoughts percentage improvement: 50.00%
  MADRS Reduced Sleep percentage improvement: 50.00%
[2]; [3]
  MADRS Concentration Difficulties improvement: 9
  MADRS Inability to Feel improvement: 7
  MADRS Inner Tension improvement: 11
  MADRS Lassitude improvement: 6
  MADRS Lassitude score: 10
  MADRS Pessimistic Thoughts improvement: 8
  MADRS Suicidal Thoughts improvement: 5
  MADRS Suicidal Thoughts score: 3
[2]; [4]
  BPRS Anxiety improvement: 14
  BPRS Blunted Affect improvement: 3
  BPRS Emotional Withdrawal improvement: 2
  BPRS Guilt Feelings improvement: 9
  BPRS Tension improvement: 5
[2]; [5]
  BPRS Anxiety score: 25
  BPRS Blunted Affect score: 11
  BPRS Emotional Withdrawal score: 13
  BPRS Guilt Feelings score: 18
  BPRS Tension score: 14
  MADRS Concentration Difficulties score: 16
  MADRS Inability to Feel score: 16
  MADRS Inner Tension score: 13
  MADRS Lassitude score: 16
  MADRS Pessimistic Thoughts score: 16
  MADRS Reduced Sleep score: 12
  MADRS Suicidal Thoughts score: 8
[2]; [6]
  BPRS Anxiety improvement: 19
  BPRS Blunted Affect improvement: 5
  BPRS Emotional Withdrawal improvement: 5
  BPRS Emotional Withdrawal score: 8
  BPRS Guilt Feelings improvement: 13
  BPRS Tension improvement: 8
  MADRS Concentration Difficulties improvement: 14
  MADRS Inability to Feel improvement: 15
  MADRS Inner Tension improvement: 10
  MADRS Lassitude improvement: 16
  MADRS Lassitude score: 0
  MADRS Pessimistic Thoughts improvement: 9
  MADRS Pessimistic Thoughts score: 7
  MADRS Reduced Sleep improvement: 2
  MADRS Suicidal Thoughts improvement: 3
[2]; [7]
  BPRS Anxiety improvement: 19
  BPRS Blunted Affect improvement: 6
  BPRS Emotional Withdrawal improvement: 7
  BPRS Guilt Feelings improvement: 13
  BPRS Guilt Feelings score: 5
  BPRS Tension improvement: 8
  MADRS Concentration Difficulties improvement: 13
  MADRS Inability to Feel improvement: 15
  MADRS Inability to Feel score: 1
  MADRS Inner Tension improvement: 8
  MADRS Lassitude improvement: 13
  MADRS Lassitude score: 3
  MADRS Pessimistic Thoughts improvement: 8
  MADRS Pessimistic Thoughts score: 8
  MADRS Reduced Sleep improvement: 6
  MADRS Suicidal Thoughts improvement: 1
[2]; IDR group n=8, day 1
  MADRS Reduced Sleep percentage improvement: 52.00%
[2]; IDR group n=8, day 7
  MADRS Reduced Sleep percentage improvement: 64.00%
[2]; [8]
  MADRS Concentration Difficulties improvement: 19
  MADRS Inability to Feel improvement: 24
  MADRS Inner Tension improvement: 15
  MADRS Lassitude improvement: 17
  MADRS Pessimistic Thoughts improvement: 21
  MADRS Suicidal Thoughts improvement: 8
[2]; [9]
  BPRS Anxiety improvement: 18
  BPRS Blunted Affect improvement: 4
  BPRS Emotional Withdrawal improvement: 5
  BPRS Guilt Feelings improvement: 20
  BPRS Tension improvement: 5
[2]; [10]
  BPRS Anxiety score: 37
  BPRS Blunted Affect score: 15
  BPRS Emotional Withdrawal score: 13
  BPRS Guilt Feelings score: 34
  BPRS Tension score: 16
  MADRS Concentration Difficulties score: 30
  MADRS Inability to Feel score: 36
  MADRS Inner Tension score: 26
  MADRS Lassitude score: 27
  MADRS Pessimistic Thoughts score: 28
  MADRS Reduced Sleep score: 25
  MADRS Suicidal Thoughts score: 11
[2]; [11]
  BPRS Anxiety improvement: 21
  BPRS Blunted Affect improvement: 7
  BPRS Emotional Withdrawal improvement: 5
  BPRS Guilt Feelings improvement: 23
  BPRS Tension improvement: 5
  MADRS Concentration Difficulties improvement: 29
  MADRS Inability to Feel improvement: 34
  MADRS Inner Tension improvement: 20
  MADRS Lassitude improvement: 22
  MADRS Pessimistic Thoughts improvement: 24
  MADRS Reduced Sleep improvement: 13
  MADRS Suicidal Thoughts improvement: 10
[2]; [12]
  BPRS Anxiety improvement: 20
  BPRS Blunted Affect improvement: 7
  BPRS Emotional Withdrawal improvement: 5
  BPRS Guilt Feelings improvement: 24
  BPRS Tension improvement: 6
  MADRS Concentration Difficulties improvement: 21
  MADRS Inability to Feel improvement: 30
  MADRS Inner Tension improvement: 14
  MADRS Lassitude improvement: 24
  MADRS Pessimistic Thoughts improvement: 25
  MADRS Reduced Sleep improvement: 16
  MADRS Suicidal Thoughts improvement: 8
[2]; Part A, 12 mg group, day seven
  mean MADRS change from baseline: −21.0
  mean MADRS change from baseline, percent: −65%
[2]; Part A, 12 mg single dose
  patients with at least one ADR: 3 of 4
[2]; Part A, 18 mg group n=4, day seven after dosing
  further patients with MADRS clinical response: 25%
[2]; Part A, 18 mg group, day seven
  mean MADRS change from baseline, percent: −41%
[2]; Part A, 18 mg single dose
  patients with at least one ADR: 3 of 4
[2]; Part B, IDR n=8, day seven
  patients with MADRS remission (total score less than or equal to 10): 87.5%
